“Also recorded” adds a separate entry of the source.
Columns and labels:
isolated rat hearts = assay: Ischemia-reperfusion assay in isolated adult rat hearts (Langendorff apparatus)
Protocol: Male Sprague-Dawley rats (300-350 g body weight) were anesthetized with Inactin (100 mg/kg IP) 20 minutes prior to surgery. The chest wall was opened and the heart was rapidly excised and immediately placed into ice-cold Krebs-Henseleit (KH) buffer (118 mM NaCl, 4.7 mM KCl, 1.2 mM MgSO4, 1.2 mM KH2PO4, […], 25 mM NaHCO3, 11 mM glucose, 1 mM pyruvate, and 0.005 mM EDTA) to produce cardiac arrest. The aorta was then cannulated and the heart retrogradely perfused with KH buffer maintained at 37° C. in a reservoir bubbled with 95% O2/5% CO2 (pH7.4) on the Langendorff apparatus at a constant pressure of 70 mmHg. Myocardial temperature was maintained at 37° C. by partially submerging the heart into a water-jacketed chamber filled with KH buffer. A water filled latex balloon attached to a metal cannula and inserted into the left ventricle via the mitral valve and connected to a pressure transducer (Powerlab, ADInstruments, Inc) was used for measurement of left ventricular pressure. The balloon was initially inflated to an end-diastolic pressure of 10 mmHg. After allowing 20 minutes for equilibration, rat hearts were subjected to 10 minutes of KH buffer containing drug or vehicle followed by 30 minutes of ischemia followed by 30 minutes of reperfusion. The difference between peak-systolic and end diastolic pressures, or left ventricular developed pressure (LVDP) was calculated as an index of contractile function and measured just prior to ischemia and at 10, and 30 minutes of reperfusion. Percent recovery of LV function [(LVDP post reperfusion/LVDP pre-ischemia)[…]] was averaged across 5 vehicle and 4 drug treated hearts and one-way anova with Newman-Keuls Multiple Comparison Test was used to determine statistical significance.
Epicardial electrogram recordings were also taken from the isolated rat hearts used in FIGS. 2 and 3. Briefly, silver wire electrodes were placed on the right atrium and the apex of the left ventricle, allowing an epicardial electrogram to be recorded. Premature ventricular contraction (PVC), ventricular tachycardia and ventricular fibrillation were common arrhythmias observed during reperfusion following 30 minutes of global ischemia. Hearts were considered positive for reperfusion arrhythmias if ventricular arrhythmias were sustained for greater than 30 seconds during the first 5 minutes of reperfusion.

Mas receptor [1] = molecular target: T1, Mas receptor (Homo sapiens, UniProt P04201); assay: Mas receptor IP3 assay (inverse agonist assay); assay type: cell-based; design: expressed in transfected cells; details: for IC50: n = 2
T1 sequence (P04201 1-325): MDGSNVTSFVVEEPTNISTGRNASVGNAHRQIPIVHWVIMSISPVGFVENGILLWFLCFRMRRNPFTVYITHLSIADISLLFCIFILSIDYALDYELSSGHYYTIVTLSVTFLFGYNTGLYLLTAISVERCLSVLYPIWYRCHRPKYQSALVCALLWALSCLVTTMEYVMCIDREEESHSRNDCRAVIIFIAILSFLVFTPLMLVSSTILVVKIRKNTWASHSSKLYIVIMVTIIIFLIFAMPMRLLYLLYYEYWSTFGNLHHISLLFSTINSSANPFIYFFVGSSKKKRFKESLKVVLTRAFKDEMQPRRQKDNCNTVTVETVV
Protocol: The Mas receptor IP3 assay was performed using a mammalian cell line (HEK293) which was transfected with a plasmid containing the human Mas receptor and selected for stable expression of the receptor. […] To achieve this, Mas receptor expression levels were increased by transiently transfecting the same Mas receptor stable cell line with additional human Mas receptor plasmid DNA following standard procedures. These cells were used in the Mas receptor IP3 assay approximately 24 hours post-transfection.
Cells were split into 96-well plates (50,000 cells/well) and allowed to attach for a period of 6 hours. The growth medium was then replaced with medium supplemented with 4 μCi/mL [3H]myo-inositol (100 μl; Perkin Elmer Life Sciences) and the cells were allowed to incubate for approximately 20 hours. Test compounds were serially diluted in inositol-free media containing 10 mM LiCl. The media in the plates was removed by aspiration, replaced with these test compound solutions and incubated at 37° C. for 1 hour.
Following this incubation, the media was removed by aspiration and replaced with buffer containing 0.1M formic acid. The plates were then frozen overnight at −80° C. to achieve complete cell lysis.
The following day, the assay plates were thawed at room temperature. The thawed contents were then transferred to 96-well filter plates (Nillipore, Multiscreen) pre-loaded with resin (Biorad, AG1-X8 100-200 mesh, formate form). The plate was filtered using a vacuum manifold and the resin was washed multiple times with water. An elution buffer was then applied (200 μl, 0.2M Ammonium formate/0.1M formic acid) and the resulting eluent was collected, under vacuum, in a 96-well collection plate. Aliquots of the eluent (80 μl) were transferred to filter plates (Whatman, Unifilter GF/C) and dried in a 45° C. oven overnight. Dried plates were counted on a scintillation counter following the addition of an appropriate scintillant (Perkin Elmer Life Sciences, Optiphase Supermix or Hi-Safe 3).

[2] = tested on: isolated rat aortic rings; assay: Angiotensin II induced vasoconstriction in isolated rat aortic rings; details: pretreatment 15 min; Angiotensin II 1 uM; same doses also tested against norepinephrine 1 uM; FIG. 6
Protocol: Sprague-Dawley rats (250-300 g) were euthanized via CO2 chamber. […] The excess adventitial tissue was carefully removed and the endothelium was sloughed off by rinsing with buffer via syringe. The vessel was then cut into 2-3 mm rings and mounted on wire stirrups connected to force transducers (World Precision Instruments, Myobath 4 channel system, FORT-10) to record changes in isometric force. The aortic rings were then placed in 15 mL organ baths filled with buffer at 37° C. with continuous aeration (95% O2 and 5% CO2)
The rings were left to equilibrate in buffer for 30 minutes. A resting tension of 4 g was applied and the rings were allowed to equilibrate for 1 hour. During the equilibration period, the buffer was changed every 30 minutes. After equilibration was complete, the aortic rings were tested for viability and maximal contraction response by addition of 50 mM KCl.
Aortic rings were contracted with AngiotensinII (1 uM) Sigma, St Louis, Mo. and the isometric force recorded. […] The aortic rings were then treated with the agonist, AngiotensinII (1 uM), and the change in isometric force was recorded. […]
Data for each group (Compound S75 concentration) was from n=4 aortic rings. Change in aortic tension after AngiotensinII treatment was expressed as a percentage to 50 mM KCL in order to normalize tension for each aortic ring.

blood pressure in rats = assay: Blood pressure measurement in rats by telemetry; assay type: in vivo, rat; details: conscious rats, IP injection, FIG. 5
Protocol: Cardiac parameters were measured by small transmitting devices, (Data Sciences PhysioTel Telemetry devices), implanted in rats. The implanted transmitting devices were used to measure blood pressure in freely moving conscious animals. There are no external connections or tethering devices that can inhibit animal movement and induce unnecessary stress, which can affect the outcome of a study.
This procedure was performed under modified aseptic conditions. Rats were anesthetized with Isoflurane gas that ranged in concentration from 1.5-2.0%. A cardiac telemetry device was implanted into the peritoneal cavity with a pressure sensing catheter situated no more than 2 cm inside the descending aorta. This was accomplished as follows: The rat was shaved and the incision site was prepared with an iodine solution. The rat was then placed on a heating pad to maintain a constant body temp of 38+/−0.5° C., and covered with a sterile drape. A 6 cm midline abdominal incision was made to provide access to the implantation area. […] The rats were monitored for 7 days to ensure proper recovery.
On the test day, injections with either vehicle or with test compound were administered via IP injection in volumes of ˜250 μl. Animals were monitored with a resolution of approximately one measurement/min for 60 minutes before injection of vehicle or compound and for about 120 minutes after injection.

Mas receptor [3] = details: Santos et al., PNAS 2003; cited from earlier work
Mas receptor [4] = molecular target: T1, Mas receptor; details: Dong et al., Cell 2001; cited from earlier work

## C=CCN1CCC2(CC1)CN(C(=O)c1cccc(F)c1F)c1ccc(F)cc12 [Compound S75, 1′-(allyl)-1,2-dihydro-5-fluoro-1-(2,3-difluoro-benzoyl)-spiro[3H-indole-3,4′-piperidine]]
Isolated rat hearts; 30 μM, 30 min ischemia, 30 min reperfusion, FIG. 2
  left ventricle function after reperfusion compared to vehicle treatment: significant increase in left ventricle function
Isolated rat hearts; 30 μM, FIG. 2
  level of left ventricle function after reperfusion versus level before ischemia: comparable to the level before ischemia
Isolated rat hearts; 30 μM, FIG. 3
  ischemic contracture: end diastolic pressure (EDP) compared to vehicle treatment: significant decrease in end diastolic pressure
Isolated rat hearts; ventricular arrhythmias sustained > 30 seconds during first 5 minutes of reperfusion, FIG. 4
  early reperfusion arrhythmias: none of the four hearts
Mas receptor [1]; FIG. 1
  mode of action at the Mas receptor: inverse agonist
[2]
  inhibition of angiotensin II induced vasoconstriction: potent and selective inhibition
Blood pressure in rats
  change in blood pressure after treatment: does not raise blood pressure; also recorded: did not result in a significant change in blood pressure

## DRVYIHP [Ang (1-7), H-Asp-Arg-Val-Tyr-Ile-His-Pro-OH]
Mas receptor [3]
  Kd: 0.33 nM

## CCCN1CCC2(CC1)CN(C(=O)c1c(F)cccc1F)c1ccc(C(C)(C)C)cc12 [Compound 4, 1′-(propyl)-1,2-dihydro-5-tert-butyl-1-(2,6-difluoro-benzoyl)-spiro[3H-indole-3,4′-piperidine]]
Mas receptor [1]
  IC50: 35.1 nM

## a peptide called NPFF, reported to bind the Mas receptor weakly and NPFF1/NPFF2 with high affinity
Mas receptor [4]
  EC50: ~400 nM

## angiotensin II: known vasoconstrictor peptide, control compound in the blood pressure study (DRVYIHPF; Angiotensin-2; UniProt P01019 25-32, looked up) [reference compound]
Blood pressure in rats
  change in blood pressure after treatment: significant increase in blood pressure

## CC(C)c1ccc2c(c1)C1(CCN(CCC(F)(F)F)CC1)CN2C(=O)c1c(F)cccc1F [Compound 1, 1′-(3,3,3-trifluoro-propyl)-1,2-dihydro-5-isopropyl-1-(2,6-difluoro-benzoyl)-spiro[3H-indole-3,4′-piperidine]]
Mas receptor [1]
  IC50: 28.6 nM
